# Source: patent US12458581B2, “Carboxylic acid loaded salt carrier and the method for producing thereof” (priority 2021, dated 2025)
# Experiment: Thermal analysis (TGA/DTA)
# Type: physicochemical
# Conditions: not given
# Method: Thermal analysis was carried out with a Linseis STA 1600 simultaneous thermal analyzer to determine simultaneous changes of weight (TGA signal) and caloric measurable transformations (DTA signal) in a temperature range between r.t. and 300° C.
row,SMILES,thermal stability of the carrier carboxylic acid salt
1,"CCC(=O)O.CCC(=O)O.O=C[O-].O=C[O-].[Mg+2] [MgFo-HProp [2], magnesium formate with loaded propionic acid]",up to 300 °C

# Same assay, conditions: constant heating, 1° C. to 300° C., FIG. 4(A)
row,SMILES,water release on heating (TGA)
1,"CCC(=O)O.CCC(=O)O.O=C[O-].O=C[O-].[Mg+2] [MgFo-HProp [2], magnesium formate with loaded propionic acid]",no water is released

# Same assay, conditions: dry sample, heating in the range of 125° C. to 200° C., 2 K/min, nitrogen
row,SMILES,total loss of weight (TGA)
1,"CCC(=O)O.CCC(=O)O.O=C[O-].O=C[O-].[Mg+2] [MgFo-HProp [2], magnesium formate with loaded propionic acid]",24.4%

# Experiment: not given
# Conditions: mean particle diameter
row,SMILES,dav
1,"CC(=O)O.CCC(=O)O.O=C([O-])C(O)C(O)C(=O)[O-].[Ca+2] (centres unmarked) [CaT-HAc-HProp [1,1], calcium tartrate with loaded acetic acid and propionic acid]",220 μm

# Same assay, conditions: mean particle diameter; listed as CaT-HAc—HProp [1,1]
row,SMILES,dav
1,"CC(=O)O.CCC(=O)O.O=C([O-])C(O)C(O)C(=O)[O-].[Ca+2] (centres unmarked) [CaT-HAc-HProp [1,1], calcium tartrate with loaded acetic acid and propionic acid]",approximately 220 μm

# Experiment: pH measurement of 0.1 M aqueous solutions
# Type: physicochemical
# Conditions: 0.1 M in millipore water, r.t., average of at least three measurements
# Text: For the pH measurements, a Seven2Go portable pH meter S2 (pH measuring-range: −2 to 20; resolution: 0.01) with an InLab Ultra Micro-ISM electrode (measuring range: pH −1 to pH 11; low temperature membrane glass type; ceramic diaphragm; reference system with Ag^+ ion trap by argenthal) as well as with an in-lab routine pH electrode (measuring range: pH 0 to pH 14; ceramic diaphragm; reference system with Ag^+ ion trap by argenthal) from Mettler-Toledo AG (Analytical, Switzerland) was used.
# For sake of comparability, compounds of the same loading ratio n=2, which is 2:1 of the loaded carboxylic acid with respect to the carrier carboxylic acid, were selected for this analysis. […] The analytes were dissolved in millipore water, stirred for 5 minutes in an airtight vial to perform the pH measurements thereafter at r.t. All measurements were performed at 0.1 molar (M) concentration of the samples, which is 0.1 mol per liter (mol/L).
# For sake of reliability, every result stated is the average of at least three single measurements. […] The numbers 1-73 (nr., first row) are used as an assignment for the 73 pairs, comprising the compound of invention (third row), the corresponding carrier carboxylic acid (fourth row) and the loaded carboxylic acid (fifth row), as used in the FIG. 6.
row,SMILES,pH values compound
1,CC(=O)O.CC(=O)O.CC(=O)O.CC(=O)[O-].CC(=O)[O-].[Ca+2] [CaAc-HAc [3]],4.62
2,CC(=O)[O-].CC(=O)[O-].CCC(=O)O.CCC(=O)O.[Ca+2] [CaAc-HProp [2]],5.16
3,"CC(=O)O.CC(=O)O.O=C1OC(C(O)CO)C([O-])=C1O.O=C1OC(C(O)CO)C([O-])=C1O.[Ca+2] (centres unmarked) [CaAsc-HAc [2], calcium ascorbate with loaded acetic acid]",4.42
4,"CC(=O)O.CC(=O)O.CC(=O)O.O=C1OC(C(O)CO)C([O-])=C1O.O=C1OC(C(O)CO)C([O-])=C1O.[Ca+2] (centres unmarked) [CaAsc-HAc [3], calcium ascorbate with loaded acetic acid]",4.22
5,CC(=O)O.CC(=O)O.CC(=O)O.CC(=O)O.O=C1OC(C(O)CO)C([O-])=C1O.O=C1OC(C(O)CO)C([O-])=C1O.[Ca+2] (centres unmarked) [CaAsc-HAc [4]],4.22
6,CC(=O)O.CC(=O)O.CC(=O)O.CC(=O)O.CC(=O)O.CC(=O)O.O=C1OC(C(O)CO)C([O-])=C1O.O=C1OC(C(O)CO)C([O-])=C1O.[Ca+2] (centres unmarked) [CaAsc-HAc [6]],4.12
7,"CCC(=O)O.CCC(=O)O.O=C1OC(C(O)CO)C([O-])=C1O.O=C1OC(C(O)CO)C([O-])=C1O.[Ca+2] (centres unmarked) [CaAsc-HProp [2], calcium ascorbate with loaded propionic acid]",4.88
8,CC(=O)O.CC(=O)O.NC(CC(=O)[O-])C(=O)[O-].[Ca+2] (centres unmarked) [CaAsp-HAc [2]],4.42
9,NC(CC(=O)[O-])C(=O)[O-].O=C(O)CO.O=C(O)CO.[Ca+2] (centres unmarked) [CaAsp-HGly [2]],3.88
10,CC(=O)O.CC(=O)O.O=C([O-])c1ccccc1.O=C([O-])c1ccccc1.[Ca+2] [CaBen-HAc [2]],4.46
11,CCC(=O)O.CCC(=O)O.O=C([O-])c1ccccc1.O=C([O-])c1ccccc1.[Ca+2] [CaBen-HProp [2]],4.64
12,CC(=O)O.CC(=O)O.O=C[O-].O=C[O-].[Ca+2] [CaFo-HAc [2]],4.74
13,CC(=O)O.CC(=O)O.O=C([O-])/C=C/C(=O)[O-].[Ca+2] [CaFum-HAc [2]],4.17
14,O=C([O-])/C=C/C(=O)[O-].O=CO.O=CO.[Ca+2] [CaFum-HFo [2]],3.58
15,CC(O)C(=O)O.CC(O)C(=O)O.O=C([O-])/C=C/C(=O)[O-].[Ca+2] [CaFum-HLac [2]],3.68
16,CCC(=O)O.CCC(=O)O.O=C([O-])/C=C/C(=O)[O-].[Ca+2] [CaFum-HProp [2]],4.27
17,CC(=O)O.CC(=O)O.NC(CCC(=O)[O-])C(=O)[O-].[Ca+2] (centres unmarked) [CaGlu-HAc [2]],4.52
18,CC(O)C(=O)O.CC(O)C(=O)O.CC(O)C(=O)O.CC(O)C(=O)O.NC(CCC(=O)[O-])C(=O)[O-].[Ca+2] (centres unmarked) [CaGlu-HLac [4]],3.60
19,CCC(=O)O.CCC(=O)O.O=C([O-])CO.O=C([O-])CO.[Ca+2] [CaGly-HProp [2]],4.63
20,CC(=O)O.CC(=O)O.CC(O)C(=O)[O-].CC(O)C(=O)[O-].[Ca+2] (centres unmarked) [CaLac-HAc [2]],4.58
21,CC(O)C(=O)O.CC(O)C(=O)O.CC(O)C(=O)[O-].CC(O)C(=O)[O-].[Ca+2] (centres unmarked) [CaLac-HLac [2]],3.45
22,CC(O)C(=O)O.CC(O)C(=O)O.CC(O)C(=O)O.CC(O)C(=O)[O-].CC(O)C(=O)[O-].[Ca+2] (centres unmarked) [CaLac-HLac [3]],3.38
23,CC(O)C(=O)O.CC(O)C(=O)O.CC(O)C(=O)O.CC(O)C(=O)O.CC(O)C(=O)[O-].CC(O)C(=O)[O-].[Ca+2] (centres unmarked) [CaLac-HLac [4]],3.30
24,CCC(=O)O.CCC(=O)O.O=C([O-])CC(O)C(=O)[O-].[Ca+2] (centres unmarked) [CaM-HProp [2]],4.45
25,CC(=O)O.CC(=O)O.O=C([O-])CC(O)C(=O)[O-].[Ca+2] (centres unmarked) [CaMa-HAc [2]],4.53
26,"CC(=O)O.CC(O)C(=O)O.CCC(=O)O.O=C([O-])CC(O)C(=O)[O-].[Ca+2] (centres unmarked) [CaMa-HAc-HProp-HLac [1,1,1]]",4.97

row,SMILES,pH values compound
1,CC(=O)O.CC(=O)O.O=C([O-])CCC(=O)[O-].[Ca+2] [CaSuc-HAc [2]],4.69
2,CCC(=O)O.CCC(=O)O.O=C([O-])CCC(=O)[O-].[Ca+2] [CaSuc-HProp [2]],5.01
3,"CC(=O)O.CC(=O)O.CC(=O)O.CC(=O)O.O=C([O-])C(O)C(O)C(=O)[O-].[Ca+2] (centres unmarked) [CaT-HAc [4], calcium tartrate with loaded acetic acid]",3.33
4,CC(=O)O.CC(=O)O.CC(=O)O.CC(=O)O.CC(=O)O.O=C([O-])C(O)C(O)C(=O)[O-].[Ca+2] (centres unmarked) [CaT-HAc [5]],3.84
5,"CC(=O)O.CC(O)C(=O)O.CCC(=O)O.O=C([O-])C(O)C(O)C(=O)[O-].[Ca+2] (centres unmarked) [CaT-HAc-HPro-HLac [1,1,1]]",3.33
6,"CC(=O)O.CCC(=O)O.O=C([O-])C(O)C(O)C(=O)[O-].[Ca+2] (centres unmarked) [CaT-HAc-HProp [1,1], calcium tartrate with loaded acetic acid and propionic acid]",3.63
7,"CC(O)C(=O)O.CC(O)C(=O)O.O=C([O-])C(O)C(O)C(=O)[O-].[Ca+2] (centres unmarked) [CaT-HLac [2], calcium tartrate with loaded lactic acid]",3.27
8,"CCC(=O)O.CCC(=O)O.O=C([O-])C(O)C(O)C(=O)[O-].[Ca+2] (centres unmarked) [CaT-HProp [2], calcium tartrate with loaded propionic acid]",3.71
9,CC(=O)O.CC(=O)O.CC(=O)[O-].CC(=O)[O-].[Mg+2] [MgAc-HAc [2]],5.06
10,CC(=O)[O-].CC(=O)[O-].CCC(=O)O.CCC(=O)O.[Mg+2] [MgAc-HProp [2]],5.51
11,CC(=O)O.CC(=O)O.O=C1OC(C(O)CO)C([O-])=C1O.O=C1OC(C(O)CO)C([O-])=C1O.[Mg+2] (centres unmarked) [MgAsc-HAc [2]],4.34
12,"CC(=O)O.CC(=O)O.O=C[O-].O=C[O-].[Mg+2] [MgFo-HAc [2], magnesium formate with loaded acetic acid]",5.10
13,O=CO.O=CO.O=C[O-].O=C[O-].[Mg+2] [MgFo-HFo [2]],6.54
14,CC(O)C(=O)O.CC(O)C(=O)O.O=C[O-].O=C[O-].[Mg+2] (centres unmarked) [MgFo-HLac [2]],3.72
15,"CCC(=O)O.CCC(=O)O.O=C[O-].O=C[O-].[Mg+2] [MgFo-HProp [2], magnesium formate with loaded propionic acid]",4.84
16,CC(=O)O.CC(=O)O.O=C([O-])/C=C/C(=O)[O-].[Mg+2] [MgFum-HAc [2]],4.13
17,O=C([O-])/C=C/C(=O)[O-].O=CO.O=CO.[Mg+2] [MgFum-HFo [2]],3.76
18,CC(O)C(=O)O.CC(O)C(=O)O.O=C([O-])/C=C/C(=O)[O-].[Mg+2] [MgFum-HLac [2]],3.69
19,CCC(=O)O.CCC(=O)O.O=C([O-])/C=C/C(=O)[O-].[Mg+2] [MgFum-HProp [2]],4.24
20,CC(=O)O.CC(=O)O.CC(O)C(=O)[O-].CC(O)C(=O)[O-].[Mg+2] (centres unmarked) [MgLac-HAc [2]],4.43
21,"CC(=O)O.CC(O)C(=O)[O-].CC(O)C(=O)[O-].CCC(=O)O.[Mg+2] (centres unmarked) [MgLac-HAc-HProp [1,1]]",4.48
22,CC(O)C(=O)O.CC(O)C(=O)O.CC(O)C(=O)[O-].CC(O)C(=O)[O-].[Mg+2] (centres unmarked) [MgLac-HLac [2]],3.31
23,CC(O)C(=O)[O-].CC(O)C(=O)[O-].CCC(=O)O.CCC(=O)O.[Mg+2] (centres unmarked) [MgLac-HProp [2]],4.45
24,CC(=O)O.CC(=O)O.O=C([O-])CCC(=O)[O-].[Mg+2] [MgSuc-HAc [2]],4.69
25,CCC(=O)O.CCC(=O)O.O=C([O-])CCC(=O)[O-].[Mg+2] [MgSuc-HProp [2]],5.18

# Same assay, conditions: 0.1 M, r.t.
row,SMILES,pH value of the reference material (non-loaded carrier salt)
1,"O=C([O-])C(O)C(O)C(=O)[O-].[Ca+2] (centres unmarked) [calcium tartrate, reference compound]",7.33
2,"O=C[O-].O=C[O-].[Mg+2] [magnesium formate, reference compound]",7.90

# Same assay, conditions: 0.1 M, r.t.; compound made via in-situ process
row,SMILES,pH value
1,"CC(=O)O.CC(=O)O.CC(=O)O.CC(=O)O.O=C([O-])C(O)C(O)C(=O)[O-].[Ca+2] (centres unmarked) [CaT-HAc [4], calcium tartrate with loaded acetic acid]",3.33
2,"CC(=O)O.CCC(=O)O.O=C([O-])C(O)C(O)C(=O)[O-].[Ca+2] (centres unmarked) [CaT-HAc-HProp [1,1], calcium tartrate with loaded acetic acid and propionic acid]",3.63
3,"CC(O)C(=O)O.CC(O)C(=O)O.O=C([O-])C(O)C(O)C(=O)[O-].[Ca+2] (centres unmarked) [CaT-HLac [2], calcium tartrate with loaded lactic acid]",3.27
4,"CC(=O)O.CC(=O)O.O=C[O-].O=C[O-].[Mg+2] [MgFo-HAc [2], magnesium formate with loaded acetic acid]",5.10
